Consider 1 compound from article PMC8997995, “Amphiphilic Cell-Penetrating Peptides Containing Natural and Unnatural Amino Acids as Drug Delivery Agents” (Cells, 2022).

This data set is described as follows: Circular dichroism, estimate of secondary structure. It is filed as physicochemical. The settings on record: CD, 100 µM peptide in water, principal component regression analysis. How it is done: Samples were prepared in 100 µM concentration dissolved in water only. The cuvette with the 1 mm path length was used for all the measurements. The circular dichroism analysis was performed with a J-1500 Jasco spectrophotometer using nitrogen gas and PM-539 detector. Parameters were selected as follows: data interval 0.1 nm, data points 701, data pitch 0.1 nm, CD scale 200 mdeg/0.1 dOD, FL scale 200 mdeg/0.1 dOD, D.I.T 2 s, bandwidth 1 nm, cell length 1 mm, start mode immediately, scanning mode continuous, scanning speed 50 nm/min, shutter control auto, and N2 flowmeter manual. An average of three readings between 190 and 260 nm were collected for each sample. The analysis was carried out using one of Multivariate Regression Analyses, which is Principal Component Regression (PCR) with a basis set containing 26 proteins reference under the following conditions: standardization of result 100, replaced negative value to zero, and rejection percentage of 1%.

Non-standard residues stand in square brackets, D forms with d. Residues, ends and D or L forms follow the SMILES beside them. Dip = N[C@H](C(=O)O)C(c1ccccc1)c1ccccc1

Regarding `N=C(N)NCCC[C@@H]1NC(=O)[C@H](C(c2ccccc2)c2ccccc2)NC(=O)[C@H](CCCNC(=N)N)NC(=O)[C@H](C(c2ccccc2)c2ccccc2)NC(=O)[C@H](CCCNC(=N)N)NC(=O)[C@H](C(c2ccccc2)c2ccccc2)NC(=O)[C@H](CCCNC(=N)N)NC(=O)[C@H](C(c2ccccc2)c2ccccc2)NC(=O)[C@H](CCCNC(=N)N)NC(=O)[C@H](C(c2ccccc2)c2ccccc2)NC1=O` [[DipR]5] (cyclo([Dip]R[Dip]R[Dip]R[Dip]R[Dip]R)), the “Other (random coil)” value is listed as 49.9%, the Turn is 16.6%, the α-helix is on record as 21.4% and the β-sheet is recorded as 12.1%.
